Series [1] has as its system pancreatic ductal adenocarcinoma (PDA). As to the kind of experiment: Post-mortem gamma counting of 18F-FDG uptake in Pdx1-Cre/KRAS*A mice after monotherapy or combination with Amy22. It is filed as in vivo, mouse. The following applies: one month; Gemcitabine 300 mg/kg IP weekly; in combination Amy22 150 mg/kg per os daily.
Experimental: The representative PET/CT images shown were acquired for Pdx1-Cre/KRAS*A mice at the beginning and end of treatment (one month) of pancreatic ductal adenocarcinoma (PDA) using either Gemcitabine alone or a combination of Gemcitabine and Amy22. The scheme used for the treatment was as follows: weekly IP administration of Gemcitabine (300 mg/kg) in both cases and daily administration of AMY22 per os (150 mg/kg) in the combination treatment (cf. FIG. 5).
In some scans, a high-level concentration of ^18F-FDG in the urinary bladder (excretion of the tracer) could be observed. High uptake of radioactivity (unrelated to the presence of tumor) was also noted in the heart.
The next series deals with H015.19 cells. As to the kind of experiment: MTT cell viability assay, H015.19 cells (Myc-/-). Particulars: Rattus norvegicus, 72 h, Myc-/- cells. It counts as cell-based, rat. An excerpt: (§1) To evaluate the in vitro activity of the compound having the formula (II) (Amy22), the sibling cell lines TGR-1 and H015.19 were used. The TGR-1 cells are a subclone of the Rat-1 fibroblastic cell line with intact Myc (Myc^+/+), whereas the H015.19 cells are Myc^−/− derivatives of the TGR-1 cells (Mateyak et al., 1997). The two sibling cell lines thus differ only in the presence or absence of Myc, thereby allowing to determine not only the activity of the tested compound in Myc-positive cancer cells, but also in cells not expressing Myc offering an indication of the specificity of the tested compound.
(§2) The TGR-1 and H015.19 cells were grown in DMEM supplemented with 10% FBS. Equal numbers of cells were seeded in multiple wells of 24-well plates at low density (<20% confluence at day 0), and either DMSO or DMSO-dissolved Amy22 (various concentrations) was added to the medium (final concentration of DMSO: 0.1%). Cell viability (sextuplicates) was measured on day 3 by using a standard MTT (Thiazolyl Blue Tetrazolium Bromide) colorimetric assay (Mosmann, 1983). Half-maximal inhibitory concentrations (IC50) were determined using a log it-log plot and linear regression of the data (SigmaPlot software; Systat Software, Inc., San Jose, Calif., USA), as shown in FIG. 1 and Table 1. The measured data were plotted on the log it-log plot for linear regression of cell viability data (average values from 5 independent experiments in each case), in order to calculate the Amy22 IC50 for the sibling cell lines that differ only in the presence or absence of Myc (TGR-1 and H015.19 cells, respectively). The IC50 for H015.19 cells was calculated by extrapolation.
A general note: Formazan colour is commonly taken as a measure of viable cells.

For the next series, the system named is TGR-1 cells. As to the kind of experiment: MTT cell viability assay, TGR-1 cells (Myc+/+). It counts as cell-based. The following applies: Rattus norvegicus, TGR1, 72 h; for IC50: Myc+/+ cells, MTT day 3, logit-log linear regression.
Text: as §1, §2

Series [2] is described as follows: MTT cell viability assay, H015.19 cells (Myc-/-). It counts as cell-based, rat. The following applies: rat, H015.19 cells (Myc-/- derivatives of TGR-1), day 3, MTT, average ± S.E.M.
Text: as §1, §2

For series [3], the system named is pancreatic ductal adenocarcinoma (PDA). The experiment in a line: Micro PET/CT imaging of Pdx1-Cre/KRAS*A mouse treated with Amy22. It is filed as in vivo. The method, then: PET/CT images were acquired of a Pdx1-Cre/KRAS*A mouse at the beginning and end of treatment (one month) of pancreatic ductal adenocarcinoma (PDA) with the Amy22 compound (cf. FIG. 4; a representative out of three independent experiments is shown). Dosing solutions of 20 mg/ml Amy22 in 0.5% carboxymethyl cellulose (CMC) were used for daily administration per os (0.15 ml per animal, dose 150 mg/kg) for 30 days. The diminished uptake of ^18F-FDG by remnants of PDA is evident and measured by the standardized uptake values (SUV values) that were 2.87 at the beginning and 1.5 at the end of the treatment. The white arrows indicate the anatomical sites of pancreata. High-level concentration of ^18F-FDG in the urinary bladder (excretion of the tracer) and also in the heart (yellow arrows) is noted.

Series [4] relates to human pancreatic ductal adenocarcinoma cell line MiaPaCa2 xenografts. As to the kind of experiment: Amy22 treatment of MiaPaCa2 xenografts in NOD/SCID mice. It counts as in vivo. The following applies: Amy22 150 mg/kg for two weeks. The method, then: For transplantation, eight-week old NOD/SCID mice were anesthetized using a steady flow of a mixture of isofluorane gas (4%) and oxygen and inoculated subcutaneously into their lateral flanks with 10^6 cancer cells and monitored daily until the tumors became palpable (tumor volume ˜100 mm^3). The mice were then divided randomly into two groups for Amy22 (150 mg/kg) or vehicle administration for a period of two weeks. Average weights±S.E.M (n=4 in each case) are indicated (p<0.001 and <0.05 for MiaPaCa2 and MMTV-Myc, respectively). […] FIG. 3 illustrates the gross appearance of surgically recovered Amy22-treated or untreated (control) xenografts.

The nature of series [5]: Blood concentrations of Amy22 after oral gavage to mice (LC-MS/MS, non-compartmental analysis). It is filed as in vivo, mouse. The method, then:
Animals at the age of 10 weeks were fasted overnight and weighed before dosing (average weight=21.6 g, n=6 male C57BL/6N). Dosing solutions of 20 mg/ml Amy22 in 0.5% carboxymethyl cellulose (CMC) were used for administration per os (0.15 ml per animal, dose 140 mg/kg). A serial tail bleeding protocol was used for the collection of blood samples. Blood samples (10 μl) were collected at selected time points (0.5, 1, 2, 4, 8, 24 hours) in tubes containing 40 μl sodium citrate (0.1 M, pH 4.5) and stored at −80° C. until sample extraction. Samples were prepared for quantification by protein precipitation and evaporation. Amy22 was quantified by LC-MS/MS analysis.
Pharmacokinetic Parameters Using Non-Compartmental Analysis

The test system of series [6] is human prostate cancer xenografts. The following applies: two weeks in vivo treatment with 20 or 30 mg/kg; cited from earlier work.
[7] abbreviates: MTT day 3, logit-log linear regression.
[8] abbreviates: mouse, whole blood, po, blood, male C57BL/6N mice, 140 mg/kg per os in 0.5% CMC.

Usually IC50 stands for the concentration that inhibits the measured activity by half. For orientation: viability means the share of living cells, or the viability signal relative to a control. Higher therefore signals better survival. As usually defined, the AUC(0-inf) is the area under the concentration-time curve extrapolated to infinity. Read a low AUC(0-inf) as low exposure. By Cmax is commonly meant the peak of the concentration-time curve. By Tmax is commonly meant the time from dosing to the highest level.

With `Nc1ccn([C@@H]2O[C@H](CO)[C@@H](O)C2(F)F)c(=O)n1` [Gemcitabine], the “remaining tumor as % of untreated PDA tumors (18F-FDG uptake, gamma counting post-mortem)” value in series [1] is given as 31%.

With `O=C(c1cc2nc(-c3ccco3)cc(C(F)(F)Cl)n2n1)N1CCNCC1` [formula (IV), reference compound], the IC50 in the series with H015.19 cells (setting [7]) worked out at 58.8 µM; in the series with TGR-1 cells, 12.3 µM.

For the molecule `O=C(Nc1ccc(F)cc1)c1cc2nc(-c3ccco3)cc(C(F)(F)Cl)n2n1` [formula (III), reference compound], the IC50 with H015.19 cells (setting [7]) worked out at 13.4 µM; with TGR-1 cells, 6.5 µM.

Take `O=C(Nc1c(C(=O)O)cnn1-c1ccccc1)c1cc2nc(-c3ccco3)cc(C(F)(F)Cl)n2n1` [Amy22]: the IC50 in the series with H015.19 cells (MTT day 3, calculated by extrapolation) is 1800 µM; with TGR-1 cells it was 5.8 µM. The viability at 3 days, 0.1 μM in series [2] (Amy22 0.1 μM) is 86.3 ± 5.9%. The molecule further came in with a viability at 3 days, 0.5 μM in series [2] (Amy22 0.5 μM) of 84.7 ± 5.7%. Also, the viability at 3 days, 1 μM in series [2] (Amy22 1 μM) worked out at 80 ± 4.1%. In series [2] (Amy22 5 μM), the viability at 3 days, 5 μM is 75.3 ± 8.8%. The viability at 3 days, 10 μM in series [2] (Amy22 10 μM) came out at 74.6 ± 4.9%. Besides, the viability at 3 days, 25 μM in series [2] (Amy22 25 μM) is 70.8 ± 5.1%. This molecule showed a viability at 3 days, 50 μM in series [2] (Amy22 50 μM) of 67.8 ± 4%. In series [2] (Amy22 100 μM), this molecule had a viability at 3 days, 100 μM of 61.1 ± 3.8%. The “survival and condition of treated mice” value in series [3] (after 150 mg/kg per os daily for 30 days) is “still alive 3 months post-treatment with no evident signs of cachexia”. Further, the “standardized uptake value (SUV) of 18F-FDG” value in series [3] (at the beginning of treatment) stood at 2.87; in series [3] (at the end of treatment, 150 mg/kg per os daily for 30 days) it was 1.5. Moreover, in series [4], the apoptosis in xenografts entry is “induced apoptosis”. Besides, the “proliferation index (Ki67 immunohistochemistry)” value in series [4] (MiaPaCa2 xenografts, controls 69.9±5.1%) came to 15.0±3.3%. The “Elimination rate constant (ke)” value in series [5] (blood, male C57BL/6N mice, 140 mg/kg per os in 0.5% CMC) is 0.2 ± 0.1 h⁻¹. This molecule also showed an AUC(0-inf) in series [5] (setting [8]) of 35.4 ± 9.5 µM·h. Moreover, the peak level in series [5] (setting [8]) (Cmax) was 6.2 ± 1.1 µM. Moreover, in series [5] (setting [8]), the Tmax amounted to 1.5 ± 0.5 h. Also, the AUC(0-t) in series [5] (mouse, whole blood, po, blood, male C57BL/6N mice, 140 mg/kg per os in 0.5% CMC, read-out: AUC0-24) worked out at 33.6 ± 8.3 µM·h. The blood concentrations in series [5] (up to at least 8 hr post dose, oral 140 mg/kg) is reported as more than 1 micro molar. This molecule also had a viability at 0.1 µM in the series with TGR-1 cells (Amy22 0.1 μM, day 3, MTT, average ± S.E.M) of 84.4 ± 5%. The molecule also displayed a viability at 0.5 µM in the series with TGR-1 cells (Amy22 0.5 μM, day 3, MTT, average ± S.E.M) of 73.7 ± 4%. Moreover, in the series with TGR-1 cells (Amy22 1 μM, day 3, MTT, average ± S.E.M), the viability at 1 µM came out at 67.3 ± 4.1%. Besides, in the series with TGR-1 cells (Amy22 5 μM, day 3, MTT, average ± S.E.M), the viability at 5 µM was determined as 54.5 ± 4.6%. The molecule further came in with a viability at 10 µM in the series on TGR-1 cells (Amy22 10 μM, day 3, MTT, average ± S.E.M) of 46 ± 2.5%. In the series on TGR-1 cells (Amy22 25 μM, day 3, MTT, average ± S.E.M), the viability at 25 µM was 39.9 ± 2.2%. The viability at 50 µM with TGR-1 cells (Amy22 50 μM, day 3, MTT, average ± S.E.M) is 26.8 ± 4.8%. This molecule displayed a viability at 100 µM with TGR-1 cells (Amy22 100 μM, day 3, MTT, average ± S.E.M) of 19 ± 3.7%.

`CCc1ccc(C=C2SC(=S)NC2=O)cc1` [10058-F4, [Z,E]-5-[4-ethylbenzylidine]-2-thioxothiazolidin-4-one]: in series [6], the “inhibition of tumor growth” value is on record as “no significant inhibition of tumor growth”.
